“And” between values parts separate entries of the source, which are not always exact repeats. Equal entries are not always repeated.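 Method: 48-hour compound exposure of cells in 96-well plates, five concentrations, linear interpolation of endpoints. At the GI50, growth is halved. Definition used: TGI = concentration required for complete inhibition of growth.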 The source made the active and inactive calls. Cut-off read from the data, not from the text of the source: active = GI50 below about 0.43 µM; inactive = the rest.
Experiments:
Assay in all cases: DTP human tumour cell line panel, 48 h
HCC-2998 colon = system: HCC-2998 colon
HCT-15 colon = system: HCT-15 colon
NCI/ADR-RES ovarian = system: NCI/ADR-RES ovarian
RPMI-8226 leukemia = system: RPMI-8226 leukemia
SNB-75 CNS = system: SNB-75 CNS
SW-620 colon = system: SW-620 colon
T-47D breast = system: T-47D breast
UACC-62 melanoma = system: UACC-62 melanoma
UO-31 renal = system: UO-31 renal

Row | Compound | GI50 (HCC-2998 colon) [µM] | TGI (HCC-2998 colon) | GI50 (HCT-15 colon) [µM] | TGI (HCT-15 colon) | GI50 (NCI/ADR-RES ovarian) [µM] | TGI (NCI/ADR-RES ovarian) [µM] | GI50 (RPMI-8226 leukemia) [µM] | TGI (RPMI-8226 leukemia) [µM] | GI50 (SNB-75 CNS) [µM] | TGI (SNB-75 CNS) | GI50 (SW-620 colon) [µM] | TGI (SW-620 colon) | GI50 (T-47D breast) [µM] | TGI (T-47D breast) | GI50 (UACC-62 melanoma) [µM] | TGI (UACC-62 melanoma) | GI50 (UO-31 renal) [µM] | TGI (UO-31 renal) | outcome (HCC-2998 colon) | outcome (SNB-75 CNS)
1 | CC/C=C\C[C@@H](O)C/C=C1/C(=O)C=C[C@H]1C/C=C\CCCC(=O)OC | 2.1 | 3.61 µM | 2.49 | 7.47 µM | 3.38 | 19.7 | 1.83 | 7.4 | 6.17 | 19.6 µM | 2.84 | 8.6 µM | 4.05 | 19 µM | 2.8 | 8.6 µM | 1.73 | 3.34 µM |  | 
2 | O=C1C(Cl)=C(NCCN2CCOCC2)C(=O)c2ncccc21 | 1.73 | 2.85 µM and 3.47 µM | 1.68 | 4.17 µM and 3.62 µM | 4.6 | 30.8 | 2.72 | 9.23 | 1.67 | 2.85 µM and 3.58 µM | 2.45 | 6.42 µM and 6.22 µM | 1.83 | 5.74 µM and 4.49 µM | 1.15 | 3.52 µM and 2.61 µM | 1.28 | 3.03 µM and 2.61 µM |  | 
3 | Cc1ccc(C(=O)NC(C)C)cc1-c1ccc(C(=O)NCC2CC2)cc1 | > 25 | > 25 µM | > 25 | > 25 µM | > 25 | > 25 | > 25 | > 25 | > 25 | > 25 µM | > 25 | > 25 µM | 16.5 | > 25 µM | > 25 | > 25 µM | > 25 | > 25 µM |  | 
4 | C[N+]1=C(/C=C/c2ccc(O)c3ncccc23)C(C)(C)c2ccccc21 | 2.44 | 6.73 µM | 0.893 | 15.1 µM | 0.634 | 6.08 | 2.48 | 10.3 | 2.26 | 7.78 µM | 2.85 | 11.1 µM | 2.94 | 14.2 µM | 2.47 | 8.54 µM | 0.58 | 5.73 µM |  | 
5 | COc1ccc2c(c1)CCCN2c1c2ccccc2nc2ccccc12 | 0.311 | 1.04 µM | 0.314 | 25.6 µM | 0.275 | 0.771 | 0.431 | 4.98 | 0.2 | 0.821 µM | 0.403 | > 100 µM | 0.662 | > 100 µM | 0.38 | 3.54 µM | 0.69 | > 100 µM |  | 
6 | O=C(Nc1ccncc1)C(=O)c1cn(S(=O)(=O)c2cccc(F)c2)c2ccccc12 | 2.2 | 89.3 µM | 2.74 | > 100 µM | 1.16 | 4.66 | 1.58 | > 100 | 2.62 | 17.8 µM | 3.02 | > 100 µM | 4.25 | > 100 µM | 2.96 | > 100 µM | 6.15 | > 100 µM |  | 
7 | CCCCCCCC[C@@H](O)CC(=O)N[C@@H](CC(N)=O)C(=O)N[C@@H](CCC(N)=O)C(=O)N[C@@H](CC(=O)c1cc(C)cc(O)c1C(=O)c1c(O)cccc1O)CC(C)C | 0.403 | 1.43 µM | 2.25 | 23.8 µM | 39.6 | > 100 | 0.0926 | 0.883 | 0.199 | 0.585 µM | 0.426 | 23.6 µM | 1.15 | 4.51 µM | 0.317 | 1.89 µM | 3.9 | 24.7 µM |  | 
8 | O=c1cc(-c2ccccc2)oc2cc(OC/C(=N/O)c3ccccc3)ccc12 | 30.7 | > 50 µM | 22.2 | > 50 µM | 19.8 | > 50 | 6.69 | > 50 | 9.01 | 32.6 µM | > 50 | > 50 µM | > 50 | > 50 µM | 12.7 | > 50 µM | 18.4 | > 50 µM |  | 
9 | NC(=O)NS(=O)(=O)c1ccc(N2N=C(C(F)(F)F)CC2c2cc(C(F)(F)F)cc(C(F)(F)F)c2)cc1 (stereo not drawn) | 10 | 23.9 µM | 2.99 | 13.6 µM | 6.95 | 21.6 | 1.38 | 3.74 | 2.86 | 15.3 µM | 4.1 | 15.7 µM | 3.73 | 17.2 µM | 10.4 | 22.7 µM | 0.0862 | 13.2 µM |  | 
10 | COc1ccc(-c2nc(-c3nc4ccc(Cl)cc4[nH]3)c3ccccn23)cc1 | 18.6 | > 100 µM | 3.89 | 64.3 µM | 2.78 | 9.2 | 3.55 | 58.3 | 1.87 | 3.94 µM | 4.07 | 22.5 µM | 3.66 | 20.2 µM | 4.89 | 20.9 µM | 1.74 | 4.11 µM |  | 
11 | COc1ccc(C(=O)C#Cc2cnc(OC)nc2OC)cc1 |  | 3.83 µM | 17200 |  |  | 79000 | 40100 | 5.2 |  | 4.8 µM | 25200 |  |  | 61400 µM | 31900 | 2.8 µM | 19100 |  | inactive | inactive
12 | O=C(CCc1nnc2sc(-c3ccc(Cl)cc3Cl)nn12)c1nc2ccccc2[nH]1 | 1.42 | 2.92 µM | 0.452 | 2.77 µM | 1.42 | 6.15 | 0.422 | 2.63 | 1.48 | 3.53 µM | 0.229 | 0.744 µM | 0.916 | 2.92 µM | 1.19 | 2.62 µM | 0.838 | 2.24 µM |  | 
13 | CC/C=C\C[C@H](F)C/C=C1/C(=O)C=C[C@@H]1C/C=C\CCCC(=O)O | 6.93 | 12.2 µM | 4.45 | 13.8 µM | 6.78 | > 32.5 | 1.22 | 30.8 | 12.5 | > 32.5 µM | 5.64 | 21.3 µM | 6.37 | 23.2 µM | 4.29 | 11.1 µM | 5.78 | 12.4 µM |  | 
14 | CC1CN1C(=O)NCCCCCCNC(=O)N1CC1C (stereo not drawn) |  | > 100 µM |  | > 100 µM |  | > 100 |  | > 100 |  | > 100 µM |  | > 100 µM |  | > 100 µM |  | > 100 µM |  | > 100 µM |  | 

Reference: PubChem BioAssay (NCI)
